# Measurements published in US4434788A, “Enhancer of anti-tumor effect” (Yamasa Shoyu Kabushiki Kaisha, priority 1980, dated 1984).
# Read-outs that look alike come from different tables or passages of the source.
# Key:
# adenosinedeaminase = conditions: cited from earlier work
# HA-1 cells = experiment: Survival percent of stationary-phase HA-1 cells treated with enhancer 30 minutes before X-ray irradiation; type: cell-based, Chinese hamster
# Experimental: (§1) (2) HA-1 cells under stationary phase prepared similarly as in (1), were irradiated with various doses (200 to 800 R) of X-rays for examination of effects of the enhancer on plating efficiencies of the cells. The treatment with the enhancer was conducted 30 minutes before irradiation. Measurement of plating efficiencies was carried out for the cells immediately after irradiation with X-rays.
# [1] = as above; type: cell-based, Chinese hamster; conditions: ha-1 cells, no irradiation, control 90, read-out: Plating efficiency of the group not irradiated with X-Rays
# Experimental: as §1
# [2] = tested on: potentially lethal damage repair; experiment: PLDR-inhibiting / radiosensitizing activity (general statements)
# EMT-6 tumors [3] = experiment: Radiosensitizing effect on EMT-6 tumor in mouse, 1500 rad, tumor size and cure; type: in vivo, BALB/c-strain female mice
# [4] = tested on: Chinese hamster-HA-1 cells; experiment: Plating efficiency of stationary-phase HA-1 cells given enhancer immediately after 1,000 R X-ray (inhibition of PLDR); type: cell-based; conditions: for Plating efficiency after 3 hours: control 1.8; for Plating efficiency after 6 hours: control 2.4; for Plating efficiency after 9 hours: control 3.8
# Experimental: (§2) (1) Cells under stationary phase, prepared by planting 2×10^5 cells/well of Chinese hamster-HA-1 cells in a multiwell dish and exchanging cultural medium every day starting on the third day and thereafter were irradiated with 1,000 R of X-rays. Immediately after radiation, 3'-dUrd, and 3'-dGuo in HANKs' balanced salt solution were administered. Then, after elapse of various times, the cells were taken off with trypsin, and a suitable number of cells were transferred into petri dishes for testing colony forming ability and plating efficiencies. The percentages of survival were calculated with corrections by the plating efficiencies with the pharmaceutical agents alone.
# [5] = as above; type: cell-based, Chinese hamster; conditions: chinese hamster, ha-1 cells, no irradiation, control 66, read-out: Plating efficiency, treated only with enhancer (after 9 hours)
# Experimental: as §2
# EMT-6 tumors [6] = experiment: Enhancement of the effect of anti-tumor agents on EMT-6 tumor in mouse; type: in vivo, BALB/c-strain mice; conditions: for Mean tumor diameter 7 days after commencement of treatment: control 7.38; for Mean tumor diameter 14 days after commencement of treatment: control 9.20; for Mean tumor diameter ratio 7 days after commencement of treatment: control 1.27; for Mean tumor diameter ratio 14 days after commencement of treatment: control 1.57
# Experimental: (1) EMT-6 tumor cells (1×10^6) were inoculated intradermally into the right thighs of BALB/c-strain mice (7 weeks old). On the 10th day after inoculation of the tumor cells and thereafter, various enhancer chemicals in physiological saline solutions were administered intrapenitoneally to the mouse every other day in the indicated doses for respective agents. The pharmaceutical agents of the present invention were administered 30 minutes after administration of the anti-tumor agents. After commencement of the treatment with pharmaceutical agents, the tumor sizes were measured every other day and compared with the control group.
# [7] = 3'-dUrd 0.8 mg/mouse + irradiation 1500 rad, irradiation alone 0%
# [8] = 3'-dUrd 0.8 mg/mouse + irradiation 1500 rad, irradiation alone 0/10
# [9] = 3'-dUrd 150 μg/ml after 1,000 R
# [10] = 3'-dUrd 300 μg/ml after 1,000 R
# [11] = 3'-dUrd 600 μg/ml after 1,000 R
# [12] = ACNU alone 25 mg/kg × 5, n = 7, before treatment 6.23 ± 0.76
# [13] = ADM alone 2 mg/kg × 8, n = 10, before treatment 6.72 ± 1.00
# [14] = araC alone 50 mg/kg × 8, n = 7, before treatment 6.11 ± 0.78
molecule,measurement,setting,value
OC[C@H]1O[C@@H](n2cnc3c2N=CNC[C@H]3O)C[C@@H]1O [2'-deoxycoformycin],Inhibition of adenosinedeaminase,adenosinedeaminase,inhibitor against adenosinedeaminase
"O=c1ccn([C@@H]2O[C@H](CO)C[C@H]2O)c(=O)[nH]1 [3'-dUrd, 3'-deoxyuridine]",Survival percent of the group irradiated with X-Rays,"HA-1 cells; 100 μg/ml, 200R, control 88",45%
same,Survival percent of the group irradiated with X-Rays,"HA-1 cells; 100 μg/ml, 400R, control 27",19%
same,Survival percent of the group irradiated with X-Rays,"HA-1 cells; 100 μg/ml, 600R, control 5.9",5.2%
same,Survival percent of the group irradiated with X-Rays,"HA-1 cells; 100 μg/ml, 800R, control 1.9",1.8%
same,Survival percent of the group irradiated with X-Rays,"HA-1 cells; 200 μg/ml, 200R, control 88",39%
same,Survival percent of the group irradiated with X-Rays,"HA-1 cells; 200 μg/ml, 400R, control 27",15%
same,Survival percent of the group irradiated with X-Rays,"HA-1 cells; 200 μg/ml, 600R, control 5.9",4.9%
same,Survival percent of the group irradiated with X-Rays,"HA-1 cells; 200 μg/ml, 800R, control 1.9",1.8%
same,Survival percent of the group irradiated with X-Rays,"HA-1 cells; 400 μg/ml, 200R, control 88",30%
same,Survival percent of the group irradiated with X-Rays,"HA-1 cells; 400 μg/ml, 400R, control 27",13%
same,Survival percent of the group irradiated with X-Rays,"HA-1 cells; 400 μg/ml, 600R, control 5.9",3.8%
same,Survival percent of the group irradiated with X-Rays,"HA-1 cells; 400 μg/ml, 800R, control 1.9",1.2%
same,Survival percent of the group irradiated with X-Rays,"HA-1 cells; 800 μg/ml, 200R, control 88",29%
same,Survival percent of the group irradiated with X-Rays,"HA-1 cells; 800 μg/ml, 400R, control 27",13%
same,Survival percent of the group irradiated with X-Rays,"HA-1 cells; 800 μg/ml, 600R, control 5.9",3.8%
same,Survival percent of the group irradiated with X-Rays,"HA-1 cells; 800 μg/ml, 800R, control 1.9",1.0%
same,Sensitizing effect under X-ray irradiation,"HA-1 cells; HA-1 cells, Table 2",found to exhibit sensitizing effect especially with low dosage of irradiation with X-rays
same,viability,[1]; 100 μg/ml,85%
same,viability,[1]; 200 μg/ml,87%
same,viability,[1]; 400 μg/ml,85%
same,viability,[1]; 800 μg/ml,80%
same,Radiosensitizing activity,[2],excellent radiosensitizing activities
same,Cure (number of mice),"EMT-6 tumors [3]; 3'-dUrd 0.8 mg/mouse + irradiation 1500 rad, 28 days, irradiation alone 1/10",3/7
same,Cure (percent),"EMT-6 tumors [3]; 3'-dUrd 0.8 mg/mouse + irradiation 1500 rad, 28 days, irradiation alone 10%",43%
same,0.5 to less than 1 of volume ratio excluding cure; Tumor regression rate: slow (percent),EMT-6 tumors [3]; [7],0%
same,Less than 0.5 of volume ratio excluding cure; Tumor regression rate: rapid (percent),EMT-6 tumors [3]; [7],14%
same,0.5 to less than 1 of volume ratio excluding cure; Tumor regression rate: slow (number),EMT-6 tumors [3]; [8],0/7
same,Less than 0.5 of volume ratio excluding cure; Tumor regression rate: rapid (number),EMT-6 tumors [3]; [8],1/7
same,1.0 to less than 2.0 of volume ratio excluding cure; regrowth: slow (number),"EMT-6 tumors [3]; 3'-dUrd 0.8 mg/mouse + irradiation 1500 rad, irradiation alone 3/10",2/7
same,2.0 or more of volume ratio excluding cure; regrowth: rapid (number),"EMT-6 tumors [3]; 3'-dUrd 0.8 mg/mouse + irradiation 1500 rad, irradiation alone 6/10",1/7
same,1.0 to less than 2.0 of volume ratio excluding cure; regrowth: slow (percent),"EMT-6 tumors [3]; 3'-dUrd 0.8 mg/mouse + irradiation 1500 rad, irradiation alone 30%",29%
same,2.0 or more of volume ratio excluding cure; regrowth: rapid (percent),"EMT-6 tumors [3]; 3'-dUrd 0.8 mg/mouse + irradiation 1500 rad, irradiation alone 60%",14%
same,Mean tumor diameter 2 weeks after treatment,"EMT-6 tumors [3]; 3'-dUrd 40 mg/kg i.p. 30 min before 1500 rad, n = 7, baseline 6.00 ± 0.41 mm, irradiation alone 7.41",6.31 ± 0.97 mm
same,Mean tumor diameter 3 weeks after treatment,"EMT-6 tumors [3]; 3'-dUrd 40 mg/kg i.p. 30 min before 1500 rad, n = 7, baseline 6.00 ± 0.41 mm, irradiation alone 8.29",4.29 ± 1.73 mm
same,Diameter ratio 2 weeks after treatment,"EMT-6 tumors [3]; 3'-dUrd 40 mg/kg i.p. 30 min before 1500 rad, n = 7, irradiation alone 1.09",1.06 ± 0.15
same,Diameter ratio 3 weeks after treatment,"EMT-6 tumors [3]; 3'-dUrd 40 mg/kg i.p. 30 min before 1500 rad, n = 7, irradiation alone 1.17",0.66 ± 0.25
same,Volume ratio 2 weeks after treatment,"EMT-6 tumors [3]; 3'-dUrd 40 mg/kg i.p. 30 min before 1500 rad, n = 7, irradiation alone 1.44",1.63 ± 0.44
same,Volume ratio 3 weeks after treatment,"EMT-6 tumors [3]; 3'-dUrd 40 mg/kg i.p. 30 min before 1500 rad, n = 7, irradiation alone 2.06",1.21 ± 0.60
same,Plating efficiency after 3 hours,[4]; [9],1.6%
same,Plating efficiency after 6 hours,[4]; [9],2.2%
same,Plating efficiency after 9 hours,[4]; [9],3.5%
same,Plating efficiency after 3 hours,[4]; [10],1.2%
same,Plating efficiency after 6 hours,[4]; [10],1.9%
same,Plating efficiency after 9 hours,[4]; [10],3.1%
same,Plating efficiency after 3 hours,[4]; [11],0.9%
same,Plating efficiency after 6 hours,[4]; [11],1.6%
same,Plating efficiency after 9 hours,[4]; [11],2.6%
same,Inhibition of repair (PLDR) after irradiation with X-rays,"[4]; HA-1 cells, Table 1",found to inhibit repair (PLDR) after irradiation with X-rays
same,Toxicity as examined by plating efficiencies,"[4]; HA-1 cells, Table 1",Substantially no toxicity was observed
same,viability at 9 h,[5]; 3'-dUrd 150 μg/ml,65%
same,viability at 9 h,[5]; 3'-dUrd 300 μg/ml,60%
same,viability at 9 h,[5]; 3'-dUrd 600 μg/ml,58%
"Cc1ncc(CNC(=O)N(CCCl)N=O)c(N)n1 [ACNU, reference compound]",Mean tumor diameter 7 days after commencement of treatment,EMT-6 tumors [6]; [12],5.51 ± 1.91 mm
same,Mean tumor diameter 14 days after commencement of treatment,EMT-6 tumors [6]; [12],6.54 ± 1.82 mm
same,Mean tumor diameter ratio 7 days after commencement of treatment,"EMT-6 tumors [6]; ACNU alone 25 mg/kg × 5, n = 7",0.87 ± 0.21
same,Mean tumor diameter ratio 14 days after commencement of treatment,"EMT-6 tumors [6]; ACNU alone 25 mg/kg × 5, n = 7",1.06 ± 0.29
"COc1cccc2c1C(=O)c1c(O)c3c(c(O)c1C2=O)C[C@@](O)(C(=O)CO)C[C@@H]3O[C@H]1C[C@H](N)[C@H](O)[C@H](C)O1 [ADM, Adriamycin, reference compound]",Mean tumor diameter 7 days after commencement of treatment,EMT-6 tumors [6]; [13],7.67 ± 1.30 mm
same,Mean tumor diameter 14 days after commencement of treatment,EMT-6 tumors [6]; [13],9.04 ± 1.77 mm
same,Mean tumor diameter ratio 7 days after commencement of treatment,"EMT-6 tumors [6]; ADM alone 2 mg/kg × 8, n = 10",1.17 ± 0.29
same,Mean tumor diameter ratio 14 days after commencement of treatment,"EMT-6 tumors [6]; ADM alone 2 mg/kg × 8, n = 10",1.38 ± 0.36
"O=c1[nH]c(=O)n(C2CCCO2)cc1F (stereo not drawn) [FT-207, 1-(2-tetrahydrofuryl)-5-fluorouracil, reference compound]",Mean tumor diameter 18 days after commencement of treatment,"EMT-6 tumors [6]; FT-207 alone 100 mg/kg × 6, n = 9, before treatment 6.96 ± 1.43, control 11.43",8.37 ± 2.12 mm
same,Mean tumor diameter ratio 18 days after commencement of treatment,"EMT-6 tumors [6]; FT-207 alone 100 mg/kg × 6, n = 9, control 1.97",1.20 ± 0.31
"Nc1ccn([C@@H]2O[C@H](CO)[C@@H](O)[C@@H]2O)c(=O)n1 [araC, 1-β-D-arabinofuranosylcytosine, reference compound]",Mean tumor diameter 7 days after commencement of treatment,EMT-6 tumors [6]; [14],7.11 ± 1.48 mm
same,Mean tumor diameter 14 days after commencement of treatment,EMT-6 tumors [6]; [14],8.07 ± 2.62 mm
same,Mean tumor diameter ratio 7 days after commencement of treatment,"EMT-6 tumors [6]; araC alone 50 mg/kg × 8, n = 7",1.16 ± 0.18
same,Mean tumor diameter ratio 14 days after commencement of treatment,"EMT-6 tumors [6]; araC alone 50 mg/kg × 8, n = 7",1.38 ± 0.46
"Bleomycin [BLM, reference compound]",Mean tumor diameter 18 days after commencement of treatment,"EMT-6 tumors [6]; BLM alone 25 mg/kg × 4, n = 10, before treatment 6.12 ± 1.17, control 11.43 ± 2.30",9.77 ± 2.50 mm
same,Mean tumor diameter ratio 18 days after commencement of treatment,"EMT-6 tumors [6]; BLM alone 25 mg/kg × 4, n = 10, control 1.97 ± 0.40",1.60 ± 0.41
